Reference: article PMC9428149, “Tackling recalcitrant Pseudomonas aeruginosa infections in critical illness via anti-virulence monotherapy” (Nature Communications, 2022)

Experiments:
[1] = test system: pyocyanin production in PA14; test: Pyocyanin production assay; details: PA14; 50µM of each inhibitor (method says 10 μM); vs vehicle
Description: The over-day culture was grown to OD600nm 1.5., diluted again at 1:10,000 in 5 mL LB and incubated with 10 μM of the test compound or the vehicle control for 18 hours at 37 °C and 200 rpm in an incubator shaker. After 18 h, 1 mL of culture was centrifuged for 2 min at 20.000 x g. The supernatant was transferred to a new tube, 200 μL of this were loaded in a flat-bottom 96-well plate, and the pyocyanin levels were quantified by measuring at OD690nm in the infinite F200 plate reader using the Magellan software (Tecan, Switzerland). […] The percent of pyocyanin was calculated compared to the PA14 culture grown in the absence of compounds.
To determine the IC50 of pyocyanin production, we followed the same process as above. […] Using GraphPad Prism Software, the IC50 curve was plotted against percent inhibition of pyocyanin production at each concentration using PA14 in the absence of compounds as a control.

[2] = test system: MvfR-regulated small molecules in PA14; test: Production of HAQs, 2-AA, DHQ and AA in PA14 cultures (LC-MS); details: PA14, 50µM inhibitor; for % Production AA: anthranilic acid, precursor control
[3] = test system: pqsA promoter (PA14 PpqsA-GFPASV); test: pqsA-GFP reporter expression; type: cell-based, Pseudomonas aeruginosa; details: PA14 PpqsA-GFPASV; 50µM per b210 (method b76 says 10 µM)
Description: The expression levels of pqsA, which is representative of the pqsABCDE operon transcription, were monitored in the presence of the MvfR inhibitors using PA14 cells containing the PpqsA-GFPASV, a reporter construct of the pqsA promoter fused to a short half-life GFP gene in, such that quantitative quenching of fluorescence corresponds to pqsA promoter repression[22],[32],[48]. […] GFP fluorescence levels were measured at λex = 485 nm/λem = 535 nm after 10 seconds of shaking every 15 min up to 12 h. The IC50 of PpqsA-GFP expression levels was performed as above using the same 13 different concentrations (0.0122–50 μM) for each of the 13 compounds tested.

| Structure (SMILES) | % Production Pyocyanin [1] [%] | % Production 2-AA [2] [%] | % Production HHQ [2] [%] | % Production HQNO [2] [%] | % Production PQS [2] [%] | % Production pqsA-GFP [3] [%] | % Production DHQ [2] [%] | % Production AA [2] [%] |
| --- | --- | --- | --- | --- | --- | --- | --- | --- |
| Cc1cc(F)ccc1NC(C)C(=O)Nc1ccc(C#N)cc1 (stereo not shown) [G6] | 110 | 152 | 106 | 131 | 115 | 87 |  |  |
| O=C(CC(=O)Nc1ccc(Oc2ccccc2)cc1)Nc1ccc(Br)cc1 [D64] | 48 | 78 | 88 | 88 | 100 | 61 | 85 | 50 |
| CC(C)c1ccc(NCC(=O)Nc2ccc(C#N)cc2)cc1 [D33] | 59 |  |  |  |  | 53 |  |  |
| Cc1cc(F)ccc1NCC(=O)Nc1ccc(F)cc1 [G4] | 84 | 80 | 95 | 92 | 88 | 92 | 85 |  |
| N#Cc1ccc(NC(=O)CC(Nc2ccc(Oc3ccccc3)cc2)C(F)(F)F)cc1 (stereo not shown) [D93] | 91 |  |  |  |  | 88 |  |  |
| Cc1cc(F)ccc1NC(=O)CC(=O)Nc1ccc(C#N)cc1 [D48] | 60 | 77 | 96 | 94 | 90 | 44 | 91 | 59 |
| CC(=O)c1ccc(NC(=O)CC(=O)Nc2ccc(C#N)cc2)cc1 [D49] | 66 | 90 | 120 | 101 | 119 | 28 | 106 | 131 |
| CC(F)(C(=O)Nc1ccc(C#N)cc1)C(=O)Nc1ccc(C#N)cc1 [D94] | 52 |  |  |  |  | 85 |  |  |
| O=C(CC(=O)Nc1ccc(Oc2ccccc2)cc1)Nc1ccc(I)cc1 [D59] | 72 | 92 | 99 | 97 | 93 | 81 | 93 | 131 |
| N#Cc1ccc(NCC(=O)Nc2ccc(F)cc2)cc1 [D24] | 59 |  |  |  |  | 26 |  |  |
| Cc1cc(F)ccc1NCC(=O)Nc1ccccc1C#N [G3] | 113 | 123 | 99 | 111 | 122 | 96 |  |  |
| N#Cc1ccc(NC(=O)CC(=O)Nc2ccc([N+](=O)[O-])cc2)cc1 [D51] | 3 | 7 | 3 | 18 | 6 | 10 | 12 | 263 |
| N#Cc1ccc(NC(=O)CC(O)Cc2ccc(F)cc2)cc1 (stereo not shown) [D89] | 95 |  |  |  |  |  |  |  |
| N#Cc1ccc(NC(=O)CNc2ccc(Cl)cc2)cc1 [D16] | 43 |  |  |  |  | 18 |  |  |
| Cc1cc(F)ccc1NCC(=O)Nc1cccc(Cl)c1 [D22] | 96 |  |  |  |  | 71 |  |  |
| N#Cc1ccc(NC(=O)CC(=O)c2ccc(F)cc2)cc1 [D76] | 77 |  |  |  |  |  |  |  |
| N#Cc1ccc(NC(=O)CC(=O)Nc2cccc(F)c2)cc1 [D72] | 30 |  |  |  |  |  |  |  |
| Cc1cc(NC(=O)CNc2ccc(F)cc2C)ccc1Br [D31] | 69 |  |  |  |  | 47 |  |  |
| Cc1cc(F)ccc1NCC(=O)Nc1ccc(C(=O)N(C)C)cc1 [D19] | 109 |  |  |  |  | 100 |  |  |
| N#Cc1ccc(NC(=O)CC(=O)Nc2ccc(NC(=O)C(F)(F)F)cc2)cc1 [D54] | 94 | 117 | 103 | 101 | 101 | 85 | 108 | 82 |
| Cc1cc(F)ccc1CCNC(=O)c1ccc(C#N)cc1 [D39] | 110 | 106 | 96 | 102 | 93 | 91 | 96 | 68 |
| N#Cc1ccc(NC(=O)CC(=O)Nc2ccc(C#N)cn2)cc1 [D78] | 14 |  |  |  |  |  |  |  |
| Cc1cc(F)ccc1NCC(=O)Nc1cc(F)ccc1F [D10] | 90 |  |  |  |  | 89 |  |  |
| Cc1ccccc1NCC(=O)Nc1ccc(C#N)cc1 [G9] | 94 | 64 | 76 | 92 | 124 | 93 | 59 |  |
| N#Cc1ccc(NC(=O)CC(=O)Nc2cccc(C#N)c2)cc1 [D75] | 49 |  |  |  |  |  |  |  |
| Cc1cc(F)ccc1NCC(=O)Nc1ccc(N2CCOCC2)cc1 [D5] | 102 |  |  |  |  | 100 |  |  |
| O=C(CC(=O)Nc1ccc(Oc2ccccc2)cc1)Nc1ccc(Cl)cc1 [D67] | 26 | 84 | 101 | 105 | 106 | 41 | 105 | 155 |

| Structure (SMILES) | % Production Pyocyanin [1] [%] | % Production 2-AA [2] [%] | % Production HHQ [2] [%] | % Production HQNO [2] [%] | % Production PQS [2] [%] | % Production pqsA-GFP [3] [%] | % Production DHQ [2] [%] | % Production AA [2] [%] |
| --- | --- | --- | --- | --- | --- | --- | --- | --- |
| N#Cc1ccc(NC(=O)CC(=O)Nc2ccc(I)cc2)cc1 [D56] | 13 | 72 | 63 | 69 | 62 | 6 | 136 | 180 |
| CCc1ccccc1NCC(=O)Nc1ccc(C#N)cc1 [D3] | 97 |  |  |  |  | 92 |  |  |
| Cc1cc(F)ccc1NCC(=O)Nc1cccc([N+](=O)[O-])c1 [D14] | 85 |  |  |  |  | 77 |  |  |
| CC(=O)Nc1ccc(NC(=O)CC(=O)Nc2ccc(C#N)cc2)cc1 [D53] | 103 | 93 | 75 | 85 | 88 | 85 | 98 | 56 |
| Cc1ccc(NC(=O)CNc2ccc(F)cc2C)c(C)c1 [D21] | 113 |  |  |  |  | 87 |  |  |
| Cc1ccc(NC(=O)CNc2ccc(F)cc2C)c(Br)c1 [D12] | 108 |  |  |  |  | 92 |  |  |
| N#Cc1ccc(/C=C/C(=O)Nc2ccc(C#N)cc2)cc1 [D83] | 114 |  |  |  |  |  |  |  |
| N#Cc1ccc(NC(=O)CC(=O)Nc2ccc(Oc3ccccc3)cc2)c(N)c1 [D92] | 4 |  |  |  |  | 1 |  |  |
| Cc1ccc(NCC(=O)Nc2ccc(C#N)cc2)cc1F [D28] | 60 |  |  |  |  | 42 |  |  |
| Cc1cc(F)ccc1NCC(=O)Nc1cccc(C#N)c1 [D13] | 100 |  |  |  |  | 90 |  |  |
| N#Cc1ccc(NC(=O)CNc2ccccc2F)cc1 [D25] | 97 |  |  |  |  | 84 |  |  |
| N#Cc1ccc(NC(=O)C(F)(F)C(=O)Nc2ccc(C#N)cc2)cc1 [D97] | 94 |  |  |  |  | 95 |  |  |
| Cc1cc(F)ccc1NCC(=O)Nc1ccc(Br)cc1C [D7] | 89 |  |  |  |  | 70 |  |  |
| N#Cc1ccc(NC(=O)C=CC(=O)Nc2ccc(F)cc2)cc1 [D86] | 88 |  |  |  |  |  |  |  |
| CC(=O)c1ccccc1NC(=O)CNc1ccc(F)cc1C [D30] | 91 |  |  |  |  | 94 |  |  |
| COc1cccc(NC(=O)CNc2ccc(F)cc2C)c1 [D32] | 92 |  |  |  |  | 94 |  |  |
| Cc1ccc(F)cc1NCC(=O)Nc1ccc(C#N)cc1 [D18] | 69 |  |  |  |  | 28 |  |  |
| COc1ccc(NC(=O)CNc2ccc(F)cc2C)cc1 [D15] | 102 |  |  |  |  | 87 |  |  |
| N#Cc1ccc(NC(=O)CNc2cccc(F)c2)cc1 [D6] | 91 |  |  |  |  | 68 |  |  |
| Cc1cc(F)ccc1NCC(=O)Nc1ccccc1Br [D2] | 101 |  |  |  |  | 96 |  |  |
| Nc1cc([N+](=O)[O-])ccc1NC(=O)CC(=O)Nc1ccc(Oc2ccccc2)cc1 [D60] | 6 |  |  |  |  |  |  |  |
| N#Cc1ccc(NC(=O)C(F)C(=O)Nc2ccc(C#N)cc2)cc1 [D96] | 34 |  |  |  |  | 42 |  |  |
| N#Cc1ccc(NC(=O)CC(=O)Nc2ccc(C#N)nc2)cn1 [D91] | 43 |  |  |  |  | 39 |  |  |
| N#Cc1ccc(NC(=O)CC(=O)Cc2ccc(F)cc2)cc1 [D84] | 102 |  |  |  |  |  |  |  |
| Cc1cc(F)ccc1NCC(=O)Nc1ccc(N2CCCC2=O)cc1 [D9] | 107 |  |  |  |  | 105 |  |  |
| O=C(CC(=O)Nc1ccc(C(F)(F)F)cc1)Nc1ccc(Oc2ccccc2)cc1 [D98] | 42 |  |  |  |  | 29 |  |  |
